Data published in patent US8207189B2, “Compound having affinity for amyloid” (Nihon Medi-Physics Co., Ltd., priority 2007, dated 2012).

Experiments:
[1] = normal mice, [125I]-labeled, cited from earlier work; for transfer into brain: 2 minutes after administration
[2] = partition coefficient based on the octanol extraction method; type: physicochemical; settings: octanol / 10 mmol/L phosphate buffer pH 7.4; Table 4 (Examples 8-9, Comparative Example 4)
Method: Partition coefficients based on the octanol extraction method (hereinafter referred to as log Poctanol) were measured, which are generally known as an indicator of permeability of compounds through the blood-brain barrier (hereinafter referred to as BBB).
A diethyl ether solution of Compound 1 prepared in Example 3 (Example 8), a diethyl ether solution of Compound 2 prepared in Example 6 (Example 9), and a diethyl ether solution of [^123I]-IMPY prepared in Reference Example 1 (Comparative Example 4) were each diluted with 10 mg/mL ascorbic acid-containing physiological saline solution, and adjusted to a radioactive concentration of 20-30 MBq/mL. To 2 mL of octanol, 10 μL each of the prepared sample solutions was added, 2 mL of 10 mmol/L phosphate buffer (pH 7.4) was added, followed by stirring for 30 seconds. After the mixture was centrifuged with a low-speed centrifuge (2000 rpm×60 min.), the octanol layer and the water layer were sampled each in an amount of 1 mL, and subjected to measurement of radioactivity count with an autowell gamma system (Type: ARC-301B, manufactured by Aloka). Using the obtained radioactivity count, log Poctanol was calculated in accordance with the equation (2).
A diethyl ether solution (Example 20) of Compound 4 prepared in Example 16, a diethyl ether solution (Example 21) of Compound 6 prepared in Example 19, and a diethyl ether solution (Comparative Example 7) of [^123I]-IMPY were each diluted with a 10 mg/mL ascorbic acid-containing physiological saline solution to adjust to a radioactive concentration of 20-30 MBq/mL. To 2 mL of octanol, 10 μL each of the prepared sample solution was added, and 2 mL of 10 mmol/L phosphate buffer (pH 7.4) was further added, followed by stirring for 30 seconds. After the mixture was centrifuged with a low-speed centrifuge (2000 rpm×60 min.), the octanol layer and the water layer were sampled each in an amount of 1 mL, and subjected to measurement of radioactivity count with an autowell gamma system (Type: ARC-301B, manufactured by Aloka). Using the obtained radioactivity count, log Poctanol was calculated in accordance with the equation (4).

[3] = transferability into brain and clearance after intravenous injection; type: in vivo, rat
Method: Using Compound 1 (Example 10) and Compound 2 (Example 11), a time course change of radioactive accumulation in brain of male Wistar rats (7-week old) was measured.
A diethyl ether solution of Compound 1 (Example 10) prepared in Example 3, a diethyl ether solution of Compound 2 (Example 11) prepared in Example 6 and a diethyl ether solution of [^123I]-IMPY (Comparative Example 5) prepared in Reference Example 1 were each diluted with 10 mg/mL ascorbic acid-containing physiological saline solution to adjust to a radioactive concentration of 8-12 MBq/mL. 0.05 mL each of the prepared sample solutions was injected under thiopental anesthesia into the tail vein of the rats. The rats were sacrificed by bleeding from abdominal artery, and brains were removed and subjected to measurement of mass of brains and further subjected to measurement of radioactivity (hereinafter referred to as A in this Example) with a single channel analyzer (detector type: SP-20 manufactured by OHYO KOKEN KOGYO Co., Ltd.) 2, 5, 30 and 60 minutes after the injection. Further, the radioactivity level of the rest of the whole body was measured in the same manner as above (hereinafter referred to as B in this Example). Using these measurement results, radioactive distribution per unit weight of brain (% ID/g) at the respective time points were calculated in accordance with the following formula (3).
Three animals were used for the experiment at the respective time points.
Using Compound 4 and Compound 6, a time course change of radioactive accumulation in brain of male Wistar rats (7-week old) was measured.
Compound 4 (Example 22), Compound 6 (Example 23) and a solution of [^123I]-IMPY (Comparative Example 8) prepared above in Reference Example 1 were each diluted with a 10 mg/mL ascorbic acid-containing physiological saline solution to prepare solutions (20-31 MBq/mL in radioactive concentration). 0.05 mL each of the prepared sample solutions was injected under thiopental anesthesia into the tail vein of the respective Wistar rat (7-week old). The rats were sacrificed by bleeding from abdominal artery, and brains were removed and subjected to measurement of mass of brains and further subjected to measurement of radioactivity (hereinafter referred to as A in this Example) with a single channel analyzer (detector type: SP-20 manufactured by OHYO KOKEN KOGYO Co., Ltd.) 2, 5, 30 and 60 minutes after the injection. Further, the radioactivity level of the rest of the whole body was measured in the same manner as above (hereinafter referred to as B in this Example). Using these measurement results, radioactive distribution per unit weight of brain (% ID/g) at the respective time points were calculated in accordance with the following formula (5).

[4] = target: T1, amyloid (aggregated Aβ1-42) injected into amygdaloid nucleus (Homo sapiens, UniProt P05067); assay: confirmation of imaging of amyloid in brain (autoradiogram, Aβ1-42 injected rats); type: in vivo, rat; settings: brain slice 60 minutes after intravenous injection, Aβ1-42
T1 construct: Aβ1-42 (manufactured by Wako) was dissolved in phosphate buffer (pH 7.4); purchased Wako
Method: (§1) (1) Aβ1-42 (manufactured by Wako) was dissolved in phosphate buffer (pH 7.4) and shaken at 37° C. for 72 hours, to obtain a 1 mg/mL suspension of aggregated Aβ (hereinafter referred to as amyloid suspension in the Examples).
(§2) (2) 2.5 μL (corresponding to […]) of the amyloid suspension was injected into an amygdaloid nucleus on one side of a male Wistar rat (7-week old). As a control, 2.5 μL of a phosphate buffered physiological saline solution (pH 7.4) was injected into an amygdaloid nucleus on the other side of the rat. The rats were examined 1 day after the injection of the amyloid suspension and the phosphate buffered physiological saline solution (pH 7.4).
(§3) (3) Compound 1 was dissolved in a 10 mg/mL ascorbic acid-containing physiological saline solution to obtain a sample solution (22 MBq/mL in radioactivity concentration in the sample solution). This solution was injected under thiopental anesthesia into the rat through the tail vein (dosage: 0.5 mL, dosed radioactivity: 11-13 MBq equivalent).
(§4) (4) Brain was removed 60 minutes after the injection to prepare a brain slice of 10 μm in thickness with a microtome (type: CM3050S, manufactured by LEICA). The brain slice was exposed to an imaging plate for 20 hours, and then image analysis was carried out by use of a Bio-imaging Analyzer (type: BAS-2500; manufactured by FUJIFILM Corporation).
(§5) Thus, it was confirmed that amyloid was deposited on the slice (FIG. 6b).
(§6) The same procedures as in Example 12 were performed except using a solution of Compound 2 in a 10 mg/mL ascorbic acid as a sample solution (the radioactive concentration of the sample solution was 25 MBq/mL).
(§7) (1) Aβ1-42 (manufactured by Wako) was dissolved in phosphate buffer (pH 7.4) and shaken at 37° C. for 72 hours, to obtain 1 mg/mL of a suspension of aggregated Aβ (hereinafter referred to as amyloid suspension in the Examples).
(§8) (3) A sample solution (30 MBq/mL in radioactivity concentration, Example 24) in which Compound 4 was dissolved in a 10 mg/mL ascorbic acid-containing physiological saline solution and a sample solution (30 MBq/mL in radioactivity concentration, Example 25) in which Compound 6 was dissolved in a 10 mg/mL ascorbic acid-containing physiological saline solution were prepared. This solution was injected under thiopental anesthesia into the rat through the tail vein (dosage: 0.5 mL, dosed radioactivity: 11-15 MBq equivalent).
(§9) Thus, it was confirmed that amyloid was deposited on the slice (FIG. 12 and FIG. 13).

[5] = test system: amyloid (aggregated Aβ1-42) injected into amygdaloid nucleus; assay: as above; type: in vivo, rat; settings: brain slice 60 minutes after intravenous injection
Method: as §1, §2, §3, §4, §5, §6, §7, §8, §9

[6] = test system: Salmonella typhimurium TA98; assay: reverse mutation test (Ames test), TA98; type: cell-based
Method: (§10) In order to examine gene mutagenicity of Compound 3, 5 and 8, reverse mutation test using Salmonella typhimurium TA98 and TA100 (hereinafter referred to as Ames test) was conducted.
(§11) The test was conducted without addition of S9mix and with addition of S9mix. Dimethylsulfoxide (DMSO) was used as a negative control. A positive control was 2-(2-furyl)-3-(5-nitro-2-furyl)acrylamide (hereinafter referred to as AF-2) in case S9mix was not added, and 2-aminoanthracene (hereinafter referred to as 2-AA) in case S9mix was added.
(§12) As a sample solution to be added to a test plate, each compound was dissolved in DMSO to prepare a solution at a concentration of 50 mg/mL, and further, each solution was diluted with DMSO to prepare a solution with 7 dosage (geometric ratio 3). As a sample solution for preparing a sample of positive control, when TA98 was used as a test strain without addition of S9mix, a solution of AF-2 (compound concentration: 1 μg/mL) in DMSO was prepared; when TA100 was used as a test strain without addition of S9mix, a solution of AF-2 (compound concentration: 0.1 μg/mL) in DMSO was prepared; when TA98 was used as a test strain with addition of S9mix, a solution of 2-AA (compound concentration: 5 μg/mL) in DMSO was prepared; and when TA100 was used as a test strain with addition of S9mix, a solution of 2-AA (compound concentration: 10 μg/mL) in DMSO was prepared.
(§13) After each sample solution to be examined and a test strain (TA98 or TA100) were mixed together so as to make the addition amount of each sample to be 0.1 mL/plate, the mixture was multilayered using soft agar on a medium of a test plate, and then incubated at 37° C. for 48 hours. Separately, after each sample solution to be examined, S9mix and a test strain were mixed together so as to make the addition amount of each sample to be 0.1 mL/plate, the mixture was multilayered using soft agar on a medium of a test plate, and then incubated at 37° C. for 48 hours. On the other hand, only DMSO was used as a sample solution to perform the same procedure as above for the negative control.

[7] = test system: Salmonella typhimurium TA100; assay: reverse mutation test (Ames test), TA100; type: cell-based
Method: as §10, §11, §12, §13

T1 sequence (P05067 672-713): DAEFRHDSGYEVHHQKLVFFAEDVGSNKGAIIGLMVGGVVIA

Row | Molecule | transfer into brain [1] | clearance from normal tissues [1] | Mutagenicity, TA98, With addition of S9mix [6] | Mutagenicity, TA98, Without addition of S9mix [6] | Mutagenicity, TA100, With addition of S9mix [7] | Mutagenicity, TA100, Without addition of S9mix [7] | other results
1 | CN(C)c1ccc(/C=C/c2ccc(I)cc2)cc1 [m-I-SB, (E)-4-dimethylamino-4′-iodostilbene] | transferred into brain | insufficient in clearance from normal tissues | – | – | – | – | –
2 | 2-[4′-(2″-hydroxyethoxy)phenyl]-6-[^123I]iodoimidazo[1,2-a]pyridine [Compound 1] | – | – | – | – | – | – | logPoctanol value [2]: 1.8; Radioactive distribution per unit weight in brain, After 2 min. ([3]; male Wistar rats, intravenous injection, 2 min, Table 5): 0.90 % ID/g; Radioactive distribution per unit weight in brain, After 5 min. ([3]; male Wistar rats, intravenous injection, 5 min, Table 5): 0.52 % ID/g; Radioactive distribution per unit weight in brain, After 30 min. ([3]; male Wistar rats, intravenous injection, 30 min, Table 5): 0.06 % ID/g; Radioactive distribution per unit weight in brain, After 60 min. ([3]; male Wistar rats, intravenous injection, 60 min, Table 5): 0.01 % ID/g; radioactive accumulation in brain two minutes after the injection (in words) ([3]; rats, intravenous, 2 min): significant radioactive accumulation; clearance from brain in 60 minutes (in words) ([3]; rats, intravenous, 60 min): rapidly clear away; accumulation of radioactivity in amygdaloid nucleus on the amyloid-injected side [4]: marked accumulation of radioactivity; accumulation of radioactivity at sites other than the amyloid injected sites [5]: little radioactive accumulation; accumulation of radioactivity in amygdaloid nucleus on the physiological saline-injected side [5]: no significant accumulation of radioactivity
3 | CN(C)c1ccc(-c2nc3ccc(I)cc3o2)cc1 [IBOX, 6-iodo-2-[4′-(N,N-dimethylamino)phenyl]benzoxazole] | transferred into brain | insufficient in clearance from normal tissues | – | – | – | – | –
4 | CN(C)c1ccc(-c2nc3ccc(I)cc3s2)cc1 [TZDM, 6-iodo-2-[4′-(N,N-dimethylamino)phenyl]benzothiazole] | transferred into brain | insufficient in clearance from normal tissues | – | – | – | – | –
5 | OCCOc1cccc(-c2cn3cc(I)ccc3n2)c1 [Compound 5, 2-[3′-(2″-hydroxyethoxy)phenyl]-6-iodoimidazo[1,2-a]pyridine] | – | – | Negative | Negative | Negative | Negative | –
6 | OCCOc1ccc(-c2cn3cc(I)ccc3n2)cc1 [Compound 3, 2-[4′-(2″-hydroxyethoxy)phenyl]-6-iodoimidazo[1,2-a]pyridine] | – | – | Negative | Negative | Negative | Negative | –
7 | CCOc1ccc(-c2cn3cc(I)ccc3n2)cc1 [Compound 8, 2-(4′-ethoxyphenyl)-6-iodoimidazo[1,2-a]pyridine] | – | – | Negative | Negative | Negative | Negative | –
